Measurements reported in patent EP1147083B1, “ARYLPIPERAZINYL-CYCLOHEXYL INDOLE DERIVATIVES FOR THE TREATMENT OF DEPRESSION” (Wyeth, priority 1999, dated 2000).
Where two headings read alike, the source gives them in different places.

Tests used:
[1] = target: T1, human 5-HT1A receptor subtype (5-HT1A.CHO cells) (Homo sapiens, UniProt P08908); test: cAMP formation in forskolin-treated cells (cAMP SPA assay); format: cell-based; settings: value in brackets; forskolin 1 uM
T1 construct: expressed in transfected cells
T1 sequence (P08908 1-422): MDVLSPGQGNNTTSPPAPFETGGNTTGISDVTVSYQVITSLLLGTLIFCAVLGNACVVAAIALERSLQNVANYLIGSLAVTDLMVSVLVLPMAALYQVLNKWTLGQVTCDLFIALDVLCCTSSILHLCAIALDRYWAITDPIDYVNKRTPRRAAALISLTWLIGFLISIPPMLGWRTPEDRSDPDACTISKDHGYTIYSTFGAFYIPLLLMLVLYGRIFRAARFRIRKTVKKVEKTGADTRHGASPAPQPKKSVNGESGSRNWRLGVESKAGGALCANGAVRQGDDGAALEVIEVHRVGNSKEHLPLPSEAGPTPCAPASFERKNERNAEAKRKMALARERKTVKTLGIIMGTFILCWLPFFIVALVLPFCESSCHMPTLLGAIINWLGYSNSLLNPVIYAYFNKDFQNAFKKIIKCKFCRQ
Method: (§1) The PCR cloning of the human 5-HT1A receptor subtype from a human genomic library has been described previously Chanda et al., Mol. Pharmacol., 43:516 (1993). A stable Chinese hamster ovary cell line expressing the human 5-HT1A receptor subtype (5-HT1A.CHO cells) was employed throughout this study. Cells were maintained in DMEM supplemented with 10% foetal calf serum, non-essential amino acids and penicillin/ streptomycin.
The following assays were performed by incubating the cells with DMEM containing 25 mM HEPES, 5 mM theophylline and 10 µM pargyline for a period of 20 minutes at 37°C. Functional activity was assessed by treating the cells with forskolin (1 uM final concentration) followed immediately by test compound (6 concentrations) for an additional 10 minutes at 37°C. In separate experiments, 6 concentrations of antagonist were preincubated for 20 minutes prior to the addition of 10 nM 8-OH-DPAT and forskolin. The reaction was terminated by removal of the media and addition of 0.5 ml ice cold assay buffer. Plates were stored at -20°C prior to assessment of cAMP formation by a cAMP SPA assay (Amersham).

[2] = target: T2, 5-HT1A cloned receptor membrane fragments (Homo sapiens, UniProt P08908); test: [35S]-GTPγS binding assay; format: biochemical; settings: read-out: GTPγS (%EMax)
T2 construct: expressed in transfected cells
T2 sequence (P08908 1-422): T1 sequence (P08908 1-422)
Method: The [^35S]-GTPγS binding assay was similar to that used by Lazareno and Birdsall, Br. J. Pharmacol. 109:1120 (1993). Briefly, 5-HT1A cloned receptor membrane fragments (as used for 5-HT1A receptor binding assays) were stored at -70°C until needed. When needed, membranes were rapidly thawed, centrifuged at 40,000 x g for 10 minutes and resuspended at 4 °C for 10 minutes in assay buffer (25 mM HEPES, 3 mM MgCl2, 100 mM NaCl, 1 mM EDTA, 10 uM GDP, […], pH 8.0). These membranes were then incubated for 30 minutes at 30°C with [^35S]GTPgS (1 nM) in the presence of vehicle, test compound (one to eight concentrations), or excess 8-OH-DPAT to define maximum agonist response. All reactions are terminated by the addition of ice cold Tris buffer followed by rapid filtration using a Tom Tech® filtration device to separate bound from free [^35S]GTPgS. Agonists produce an increase in the amount of [^35S]GTPgS bound whereas antagonists produce no increase in binding. Bound radioactivity was counted and analyzed as above.

[3] = target: T3, human 5-HT1A receptor subtype (Homo sapiens, UniProt P08908); test: 5-HT1A receptor binding assay with [3H]8-OH-DPAT on CHO cell membranes; settings: [3H]8-OH-DPAT 1.5 nM
T3 construct: expressed in transfected cells
T3 sequence (P08908 1-422): T1 sequence (P08908 1-422)
Method: as §1
Cells were grown to 95-100% confluency as a monolayer before membranes were harvested for binding studies. Cells were gently scraped from the culture plates, transferred to centrifuge tubes, and washed twice by centrifugation (2000 rpm for 10 min., 4°C) in buffer (50 mM Tris; pH 7.5). The resulting pellets were aliquoted and placed at -80°C. On the day of assay, the cells were thawed on ice, and resuspended in buffer. Studies were conducted using [^3H]8-OH-DPAT as the radioligand. The binding assay was performed in 96 well microtiter plates in a final total volume of 250 µL of buffer. Competition experiments were performed by using 7 concentrations of unlabelled drug and a final ligand concentration of 1.5 nM. Nonspecific binding was determined in the presence of 10 µM 5HT. Saturation analysis was conducted by using [^3H]8-OH-DPAT at concentrations ranging from 0.3-30 nM. Following a 30 minute incubation at room temperature, the reaction was terminated by the addition of ice cold buffer and rapid filtration using a M-96 Brandel Cell Harvester (Gaithersburg, MD) through a GF/B filter presoaked for 30 minutes in 0.5% polyethyleneimine.

[4] = value in brackets, or a lone % in the cell, maximum agonist response defined by excess 8-OH-DPAT

Row | Emax [1] [%] | Emax [2, 4] [%] | Ki [3] [nM] | SMILES | Emax [2] [%]
1 | 0 | 0 | 32 | c1cc(N2CCN([C@H]3CC[C@@H](c4c[nH]c5ccccc54)CC3)CC2)c2cc[nH]c2c1 [Example 1a, 3-[cis-4-[4-(1H-Indol-4-yl)-1-piperazinyl]cyclohexyl]-1H-indole] | 
2 | 77 | 32 | 5.29 | c1cc(N2CCN([C@H]3CC[C@H](c4c[nH]c5ccccc54)CC3)CC2)c2cc[nH]c2c1 [Example 1b, 3-[trans-4-[4-(1H-indol-4-yl)-1-piperazinyl]cyclohexyl]-1H-indole] | 
3 |  |  | 117 | Fc1cccc2[nH]cc([C@H]3CC[C@@H](N4CCN(c5cccc6[nH]ccc56)CC4)CC3)c12 [Example 2a, 4-Fluoro-3-[cis-4-[4-(1H-indol-4-yl)-1-piperazinyl]cyclohexyl]-1H-indole] | 
4 |  |  | 22.3 | Fc1cccc2[nH]cc([C@H]3CC[C@H](N4CCN(c5cccc6[nH]ccc56)CC4)CC3)c12 [Example 2b, 4-Fluoro-3-[trans-4-[4-(1H-indol-4-yl)-1-piperazinyl]cyclohexyl]-1H-indole] | 
5 | 0 | 0 | 33.5 | Fc1ccc2c(c1)[nH]cc2[C@H]1CC[C@@H](N2CCN(c3cccc4[nH]ccc34)CC2)CC1 [Example 4a, 6-Fluoro-3-[cis-4-[4-(1H-indol-4-yl)-1-piperazinyl]cyclohexyl]-1H-indole] | 
6 | 7.5 |  | 5.45 | Fc1ccc2c(c1)[nH]cc2[C@H]1CC[C@H](N2CCN(c3cccc4[nH]ccc34)CC2)CC1 [Example 4b, 6-Fluoro-3-[trans-4-[4-(1H-indol-4-yl)-1-piperazinyl]cyclohexyl]-1H-indole] | 
7 |  |  | 58.3 | Clc1ccc2[nH]cc([C@H]3CC[C@H](N4CCN(c5cccc6[nH]ccc56)CC4)CC3)c2c1 [Example 6b, 5-Chloro-3-[trans-4-[4-(1H-indol-4-yl)-1-piperazinyl]cyclohexyl]-1H-indole] | 
8 | 0 | 0 | 60.3 | COc1ccc2[nH]cc([C@H]3CC[C@@H](N4CCN(c5cccc6[nH]ccc56)CC4)CC3)c2c1 [Example 8a, 5-Methoxy-3-[cis-4-[4-(1H-indol-4-yl)-1-piperazinyl]cyclohexyl]-1H-indole] | 
9 | 77 | 32 | 2.87 | COc1ccc2[nH]cc([C@H]3CC[C@H](N4CCN(c5cccc6[nH]ccc56)CC4)CC3)c2c1 [Example 8b, 5-Methoxy-3-[trans-4-[4-(1H-indol-4-yl)-1-piperazinyl]cyclohexyl]-1H-indole] | 
10 | 0 |  |  | Fc1ccc2[nH]cc([C@H]3CC[C@@H](N4CCN(c5cccc6cccnc56)CC4)CC3)c2c1 [Example 27a, 8-{4-[(1,4-cis)-4-(5-Fluoro-1H-indol-3-yl)-cyclohexyl] -piperazin-1-yl}-quinoline] | 20

Further lines, the molecule ahead of its results:

Row | SMILES | Emax [1] [%] | Emax [2, 4] [%] | Ki [3] [nM] | Emax [2] [%]
11 | Fc1ccc2[nH]cc([C@H]3CC[C@@H](N4CCN(c5cccc6[nH]ccc56)CC4)CC3)c2c1 [Example 3a, 5-Fluoro-3-[cis-4-[4-(1H-indot-4-yl)-1-piperazinyl]cyclohexyl]-1H-indole] | 0 |  | 36.7 | 10
12 | Fc1ccc2[nH]cc([C@H]3CC[C@H](N4CCN(c5cccc6[nH]ccc56)CC4)CC3)c2c1 [Example 3b, 5-Fluoro-3-[trans-4-[4-(1H-indol-4-yl)-1-piperazinyl]cyclohexyl]-1H-indole] | 0 |  | 4.62 | 51
13 | N#Cc1ccc2[nH]cc([C@H]3CC[C@@H](N4CCN(c5cccc6[nH]ccc56)CC4)CC3)c2c1 [Example 7a, 3-{4-[(1,4-cis)-4-(1H-indol-4-yl)-piperazinyl-1-yl]cyclohexyl} -1H-indole-5-carbonitrile] | 0 |  |  | 
14 | Cc1[nH]c2ccccc2c1[C@H]1CC[C@@H](N2CCN(c3cccc4[nH]ccc34)CC2)CC1 [Example 9a, 3-[cis-4-[4-(1H-Indol-4-yl)-1-piperazinyl]cyclohexyl] -2-methyl-1H-indole] |  |  | 87.1 | 
15 | Cc1[nH]c2ccccc2c1[C@H]1CC[C@H](N2CCN(c3cccc4[nH]ccc34)CC2)CC1 [Example 9b, 3-[trans-4-[4-(1H-Indol-4-yl)-1-piperazinyl]cyclohexyl] -2-methyl-1H-indole] |  |  | 13 | 
16 | c1cc(N2CCN([C@H]3CC[C@@H](c4c[nH]c5ncccc54)CC3)CC2)c2cc[nH]c2c1 [Example 10a, 3-{(1,4-cis)-4-[4-(1H-Indole-4-yl)-piperazin-1-yl]-cyclohexyl}-1H-pyrrolo[2,3-b]pyridine] | 0 |  |  | 
17 | Fc1ccc2[nH]cc([C@H]3CC[C@@H](N4CCN(c5cccc6c5OCCO6)CC4)CC3)c2c1 [Example 24a, 3-{(1,4-cis)-4-[4-(2,3-Dihydro-benzo[1,4]dioxin-5-yl)-piperazin-1-yl]-cyclohexyl}-5-fluoro-1H-indole] |  |  |  | 15.4
18 | Fc1ccc2[nH]cc([C@H]3CC[C@H](N4CCN(c5cccc6c5OCCO6)CC4)CC3)c2c1 [Example 24b, 3-{(1,4-trans)-4-[4-(2,3-Dihydro-benzo[1,4]dioxin-5-yl)-piperazin-1-yl]-cyclohexyl}-5-fluoro-1H-indole] |  |  |  | 73
19 | Fc1ccc2c(c1)[nH]cc2[C@H]1CC[C@@H](N2CCN(c3cccc4c3OCCO4)CC2)CC1 [Example 25a, 3-{(1,4-cis)-4-[4-(2,3-Dihydro-benzo[1,4]dioxin-5-yl)-piperazin-1-yl]-cyclohexyl}-6-fluoro-1H-indole] |  |  |  | 9
20 | Fc1ccc2[nH]cc([C@H]3CC[C@H](N4CCN(c5cccc6cccnc56)CC4)CC3)c2c1 [Example 27b, 8-{4-[(1,4-trans)-4-(5-Fluoro-1H-indol-3-yl)-cyclohexyl] -piperazin-1-yl}-quinoline] |  |  |  | 66
21 | Cn1cc([C@H]2CC[C@@H](N3CCN(c4cccc5cccnc45)CC3)CC2)c2cc(F)ccc21 [Example 28, 8-{4-(1,4-cis)-4-[4-(5-Fluoro-1-methyl-1H-indol-3-yl)-cyclohexyl] -piperazin-1-yl}-quinoline] | 0 |  |  | 0
22 | N#Cc1ccc2[nH]cc([C@H]3CC[C@@H](N4CCN(c5cccc6cccnc56)CC4)CC3)c2c1 [Example 29a, 3-[(1,4-cis)-4-(4-Quinolin-8-yl-piperazin-1-yl)-cyclohexyl] -1H-indole-5-carbonitrile] |  |  |  | 23
23 | COc1cc(N2CCN([C@H]3CC[C@@H](c4c[nH]c5ccc(C#N)cc54)CC3)CC2)c2ncccc2c1 [Example 44c, 3-{(1,4-cis)-4-[4-(6-Methoxy-quinolin-8-yl)-piperazin-1-yl]-cyclohexyl}-1H-indole-5-carbonitrile] | 0 | 0 |  | 
